Measurements: patent publication US20250019401A1, “ANTIMICROBIAL PEPTIDE BOLESPLEENIN OF BOLEOPHTHALMUS PECTINIROSTRIS AND APPLICATION THEREOF” (Xiamen University, priority 2023, published 2025)
Where a SMILES comes first, the peptide text is derived from it.

Legend:
Format in all cases: cell-based
Acinetobacter baumannii = test system: Acinetobacter baumannii
Excerpt: (§1) Bacterial strains involved in Embodiment 2 are as follows: Staphylococcus aureus, Acinetobacter baumannii, Escherichia coli, Enterococcus faecium, Enterococcus faecalis, Pseudomonas aeruginosa, Cryptococcus neoformans, Fusarium oxysporum, Aspergillus flavus, and Fusarium solani.
(§2) The bacterial strains are purchased from the China General Microbiological Culture Collection Center (CGMCC).
(§3) A specific analysis method of this embodiment is as follows:
(§4) (1) The conserved strains are coated on a nutrient broth plate, a Yeast Extract Peptone Dextrose (YPD) plate, or a potato dextrose plate and are inverted and incubated for 1-7 days.
(§5) (2) Colonies are picked from the plates, inoculated on a slant with a corresponding medium, continually incubated for 1-7 days, and washed down from the slant with corresponding medium with 10 mMol/L (mM) of sodium phosphate buffer (pH=7.4), and concentrations of suspensions of the bacteria or suspensions of the fungi are adjusted. The suspensions of the bacteria are diluted so that final concentrations are 5×10^5 CFU/mL. Mold spores of the suspensions of the fungi are counted under an optical microscope using a hemocyte counting plate, and concentrations of mold spores are adjusted to final concentrations of 5×10^4 spores/mL.
(§6) (3) Powder of the synthesized antimicrobial peptide Bolespleenin is dissolved in sterilized distillation-distillation H2O (ddH2O), filtered through a 0.22 μm filter membrane, and concentrations of the antimicrobial peptide Bolespleenin are then diluted to 3 μM, 6 μM, 12 μM, 24 μM, 48 μM, 96 μM, and 192 μM, and placed on ice for use.
(§7) (4) A blank control group, a negative control group, and an experimental group of each of the bacteria and the fungi to be tested are set on 96-well cell culture plates, and each of the blank control group, the negative control group, and the experimental group has three parallel samples.
(§8) The blank control group a: 50 μL of the antimicrobial peptide Bolespleenin with 50 μL of the corresponding medium;
(§9) The negative control group b: 50 μL of the sterilized ddH2O with 50 μL of each of the suspensions of the bacteria or the suspensions of the fungi; and
(§10) The experimental group c: 50 μL of the antimicrobial peptide Bolespleenin with 50 μL of each of the suspensions of the bacteria or the suspensions of the fungi.
(§11) (5) The 96-well cell culture plates are plated in an incubator at 28° C. and incubated for 1-2 days, and MIC results of the experimental group are observed. The experimental group is mixed by blowing, an appropriate amount of each of the suspensions of the bacteria or the suspensions of the fungi is sucked up, added dropwise onto the plate with the corresponding medium, and inverted and incubated at an appreciate temperature for 1-2 days, and MBC results are observed.

Aspergillus flavus = test system: Aspergillus flavus
Excerpt: as §1, §2, §3, §4, §5, §6, §7, §8, §9, §10, §11

Cryptococcus neoformans = test system: Cryptococcus neoformans
Excerpt: as §1, §2, §3, §4, §5, §6, §7, §8, §9, §10, §11

Enterococcus faecalis = test system: Enterococcus faecalis
Excerpt: as §1, §2, §3, §4, §5, §6, §7, §8, §9, §10, §11

Enterococcus faecium = test system: Enterococcus faecium
Excerpt: as §1, §2, §3, §4, §5, §6, §7, §8, §9, §10, §11

Escherichia coli = test system: Escherichia coli
Excerpt: as §1, §2, §3, §4, §5, §6, §7, §8, §9, §10, §11

Fusarium oxysporum = test system: Fusarium oxysporum
Excerpt: as §1, §2, §3, §4, §5, §6, §7, §8, §9, §10, §11

Fusarium solani = test system: Fusarium solani
Excerpt: as §1, §2, §3, §4, §5, §6, §7, §8, §9, §10, §11

Pseudomonas aeruginosa = test system: Pseudomonas aeruginosa
Excerpt: as §1, §2, §3, §4, §5, §6, §7, §8, §9, §10, §11

Staphylococcus aureus = test system: Staphylococcus aureus
Excerpt: as §1, §2, §3, §4, §5, §6, §7, §8, §9, §10, §11

MIC (a-b) (Acinetobacter baumannii): 1.5 to 3 µM | MIC (a-b) (Aspergillus flavus): 6 to 12 µM | MIC (a-b) (Cryptococcus neoformans): <1.5 µM | MIC (a-b) (Enterococcus faecalis): 3 to 6 µM | MIC (a-b) (Enterococcus faecium): 1.5 to 3 µM | MIC (a-b) (Escherichia coli): 3 to 6 µM | MIC (a-b) (Fusarium oxysporum): 3 to 6 µM | MIC (a-b) (Fusarium solani): 3 to 6 µM | MIC (a-b) (Pseudomonas aeruginosa): <1.5 µM | MIC (a-b) (Staphylococcus aureus): <1.5 µM
Compound: CC[C@H](C)[C@H](NC(=O)[C@@H](N)CC(C)C)C(=O)NCC(=O)N[C@@H](CC(C)C)C(=O)N[C@@H](Cc1ccc(O)cc1)C(=O)N[C@@H](CC(C)C)C(=O)N[C@@H](CC(C)C)C(=O)N[C@@H](Cc1c[nH]cn1)C(=O)N[C@@H](CCCNC(=N)N)C(=O)N[C@@H](CCCNC(=N)N)C(=O)N[C@@H](CCCNC(=N)N)C(=O)N[C@@H](CCCNC(=N)N)C(=O)N[C@@H](CCCNC(=N)N)C(=O)N[C@@H](Cc1c[nH]cn1)C(=O)O [Bolespleenin, Leu-Ile-Gly-Leu-Tyr-Leu-Leu-His-Arg-Arg-Arg-Arg-Arg-His] (H-LIGLYLLHRRRRRH-OH)
MBC (a-b) (Acinetobacter baumannii): 1.5 to 3 µM | MBC (a-b) (Aspergillus flavus): 24 to 48 µM | MBC (a-b) (Cryptococcus neoformans): <1.5 µM | MBC (a-b) (Enterococcus faecalis): 3 to 6 µM | MBC (a-b) (Enterococcus faecium): 1.5 to 3 µM | MBC (a-b) (Escherichia coli): 6 to 12 µM | MBC (a-b) (Fusarium oxysporum): 3 to 6 µM | MBC (a-b) (Fusarium solani): 3 to 6 µM | MBC (a-b) (Pseudomonas aeruginosa): 1.5 to 3 µM | MBC (a-b) (Staphylococcus aureus): 1.5 to 3 µM
